The source of these data is patent US7060716B2, “Tryptase inhibitors” (Altana Pharma AG, priority 2001, dated 2006).

Where a name gives a salt, the structure may show the parent alone.

In the experiment the target is T1, human tryptase (Homo sapiens, UniProt P20231).
T1 construct: from tissue
The experiment can be described thus: Inhibition of human tryptase (apparent dissociation constant Kiapp, chromogenic substrate tos-Gly-Pro-Arg-pNA). In kind it is biochemical. The conditions noted are these: apparent dissociation constant in the presence of substrate; heparin 0.1–50 μg/ml; equilibrium conditions; read-out: Klapp. From the text: The documented pathophysiological effects of mast cell tryptase are caused directly by the enzymatic activity of the protease. Accordingly, they are reduced or blocked by inhibitors which inhibit the enzymatic activity of the tryptase. A suitable measure for the affinity of a reversible inhibitor to the target protease is the equilibrium dissociation constant Ki of the enzyme-inhibitor complex. This Ki value can be determined via the effect of the inhibitor on the tryptase-induced cleavage of a chromogenic peptide-p-nitroanilide substrate or a fluorogenic peptide-aminomethylcoumarin substrate.
The dissociation constants for the tryptase-inhibitor complexes are determined under equilibrium conditions in accordance with the general proposals of Bieth (Bieth J G, Pathophysiological Interpretation of kinetic constants of protease inhibitors, Bull. Europ. Physiopath. Resp. 16:183–195, 1980) and the methods of Sommerhoff et al. (Sommerhoff C P et al., A Kazal-type inhibitor of human mast cell tryptase: Isolation from the medical leech Hirudo medicinalis, characterization, and sequence analysis, Biol. Chem. Hoppe-Seyler 375: 685–694, 1994).
Human tryptase is isolated from lung tissue or prepared recombinantly; the specific activity of the protease, determined by titration, is usually greater than 85% of the theoretical value. […]

T1 sequence (P20231 31-275): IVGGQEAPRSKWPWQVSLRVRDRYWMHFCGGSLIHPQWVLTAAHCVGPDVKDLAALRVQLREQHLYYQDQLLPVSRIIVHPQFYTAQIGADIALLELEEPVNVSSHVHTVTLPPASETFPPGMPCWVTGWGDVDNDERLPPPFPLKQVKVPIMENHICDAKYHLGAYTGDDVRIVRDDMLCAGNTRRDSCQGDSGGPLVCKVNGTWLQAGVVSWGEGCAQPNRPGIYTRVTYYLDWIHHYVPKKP

In the case of `NCc1ccc(CNC(=O)OCC#Cc2cccc(C#CCOC(=O)NCc3ccc(CN)cc3)n2)cc1` [Compound 2, 2,6-Bis-[3-(4-aminomethylbenzylaminocarbonyloxy)prop-1-ynyl]pyridine trihydrochloride], the Ki worked out at 6 nM.
On to `NCc1cccc(CNC(=O)OCC#Cc2cccc(C#CCOC(=O)NCc3cccc(CN)c3)n2)c1` [Compound 1, 2,6-Bis-[3-(3-aminomethylbenzylaminocarbonyloxy)prop-1-ynyl]pyridine trihydrochloride], for which the Ki stood at 2.6 nM.
